Data taken from US20240336647A1, “NUCLEOSIDE ANALOGS AND THERAPEUTIC USE THEREOF” (priority 2023, published 2024).
Entries after “also recorded” stand apart in the source; their conditions may differ.

Experiments:
SARS-COV-2 RdRp [1] = target: T1, SARS-COV-2 RdRp (Severe acute respiratory syndrome coronavirus 2, UniProt P0DTD1); assay: Primer extension to determine if m1A is incorporated onto RNA by RdRp via m1ATP (PAGE); type: biochemical; conditions: CTP, 37° C.
Experimental: Determine if the m1A or m3C modification could be incorporated onto RNA or DNA by a polymerase via m1ATP or m3CTP, respectively: The SARS-COV-2 RdRp with m1ATP is used as the example. Sources of materials used in the experiment can be found in reference [Apostle et al Preprints doi:10.20944/preprints202311.1268.v1]. RNA duplex [F038]-[F039] (SEQ ID NOs: 12 and 13, FIG. 2) was prepared by annealing the two RNAs using the following procedure. The solution of RNAs [F038] (SEQ ID NO: 12, 20 μM, all concentrations are final) and [F039] (SEQ ID NO: 13, 20 μM) in Tris-HCl (10 mM), and KCI (100 mM) was heated at 94° C. for 5 min. The solution was then cooled to RT slowly giving the [F038]-[F039] (SEQ ID NOs: 12 and 13) duplex. […] To another tube containing only the RNA duplex in 10 μL nuclease free water ([…], corresponding to the experiment of lane 1 in FIG. 2) were also added the EDTA and loading dye solutions (same quantities as above, final volume 30 μL). […]
The results of the primer extension reaction is shown in FIG. 2, gel image for determining if m1A could be incorporated onto RNA by SARS-COV-2 RdRp via m1ATP. […] The reaction products were analyzed with PAGE. […]

SARS-COV-2 RdRp [2] = target: T1, SARS-COV-2 RdRp; type: biochemical

SMILES | inhibition of RdRp by m1ATP (SARS-COV-2 RdRp [1]; m1ATP only for 15 min, then ATP, GTP and UTP) | incorporation of m1A into RNA by RdRp via m1ATP (SARS-COV-2 RdRp [1]; m1ATP, GTP, UTP 0.5 mM each, no ATP, 2 h) | effect of the modification in template RNA on RdRp catalytic activity (SARS-COV-2 RdRp [2])
C[n+]1cnc2c(ncn2[C@@H]2O[C@H](COP(=O)(O)OP(=O)(O)OP(=O)(O)O)C(O)C2O)c1N (stereo partly drawn) [m1ATP] | does not inhibit RdRp | m1A can be incorporated into RNA by SARS-COV-2 RdRp via m1ATP; also recorded: m1A could indeed be efficiently incorporated into RNA by SARS-COV-2 RdRp; also recorded: m1A can be incorporated onto RNA | –
C[n+]1c(N)ccn([C@@H]2O[C@H](CO)C(O)C2O)c1=O (stereo partly drawn) [m3C, N3-methylcytidine] | – | – | has minimal impact; also recorded: can be tolerated by the RdRp; also recorded: has little effect on the RdRp
